{"source": "PubChem BioAssay (NCI)", "test_in_all_cases": "NCI anticancer screen, dose series, 48 h", "key": {"[1]": {"system": "786-0 renal"}, "[2]": {"system": "A498 renal"}, "[3]": {"system": "A549 NSCLC"}, "[4]": {"system": "ACHN renal"}, "[5]": {"system": "BT-549 breast"}, "[6]": {"system": "CAKI-1 renal"}, "[7]": {"system": "CCRF-CEM leukemia"}, "[8]": {"system": "COLO 205 colon"}, "[9]": {"system": "DU-145 prostate"}, "[10]": {"system": "EKVX NSCLC"}, "[11]": {"system": "HCC-2998 colon"}, "[12]": {"system": "HCT-116 colon"}, "[13]": {"system": "HCT-15 colon"}, "[14]": {"system": "HL-60(TB) leukemia"}, "[15]": {"system": "HOP-62 NSCLC"}, "[16]": {"system": "HOP-92 NSCLC"}, "[17]": {"system": "HS 578T breast"}, "[18]": {"system": "HT29 colon"}, "[19]": {"system": "K-562 leukemia"}, "[20]": {"system": "KM12 colon"}, "[21]": {"system": "LOX IMVI melanoma"}, "[22]": {"system": "MALME-3M melanoma"}, "[23]": {"system": "MCF7 breast"}, "[24]": {"system": "MDA-MB-231 breast"}, "[25]": {"system": "MDA-MB-435"}, "[26]": {"system": "MOLT-4 leukemia"}, "[27]": {"system": "NCI-H226 lung"}}, "note": "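Assay format: 96-well plates, 48-hour exposure. Abbreviation: GI50, concentration required for 50% inhibition of growth. TGI: total growth inhibition.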"}
{"smiles": "CCN(CC)CCN1CC(O)=C(c2nc(-c3ccc(Cl)cc3)cs2)C1=N", "values": [{"measurement": "GI50", "setting": "[1]", "result": 1.62, "unit": "µM"}, {"measurement": "TGI", "setting": "[1]", "result": 3.19, "unit": "µM"}, {"measurement": "GI50", "setting": "[2]", "result": 1.72, "unit": "µM"}, {"measurement": "TGI", "setting": "[2]", "result": 3.47, "unit": "µM"}, {"measurement": "GI50", "setting": "[3]", "result": 3.62, "unit": "µM"}, {"measurement": "TGI", "setting": "[3]", "result": 17.8, "unit": "µM"}, {"measurement": "GI50", "setting": "[4]", "result": 3.14, "unit": "µM"}, {"measurement": "TGI", "setting": "[4]", "result": 12, "unit": "µM"}, {"measurement": "GI50", "setting": "[5]", "result": 5.17, "unit": "µM"}, {"measurement": "TGI", "setting": "[5]", "result": 21.2, "unit": "µM"}, {"measurement": "GI50", "setting": "[6]", "result": 1.98, "unit": "µM"}, {"measurement": "TGI", "setting": "[6]", "result": 6.72, "unit": "µM"}, {"measurement": "GI50", "setting": "[7]", "result": 2, "unit": "µM"}, {"measurement": "TGI", "setting": "[7]", "result": 4.99, "unit": "µM"}, {"measurement": "GI50", "setting": "[8]", "result": 2.04, "unit": "µM"}, {"measurement": "TGI", "setting": "[8]", "result": 4, "unit": "µM"}, {"measurement": "GI50", "setting": "[9]", "result": 7.26, "unit": "µM"}, {"measurement": "TGI", "setting": "[9]", "result": 62.4, "unit": "µM"}, {"measurement": "GI50", "setting": "[10]", "result": 9.36, "unit": "µM"}, {"measurement": "TGI", "setting": "[10]", "result": 33.9, "unit": "µM"}, {"measurement": "GI50", "setting": "[11]", "result": 1.95, "unit": "µM"}, {"measurement": "TGI", "setting": "[11]", "result": 3.91, "unit": "µM"}, {"measurement": "GI50", "setting": "[12]", "result": 1.78, "unit": "µM"}, {"measurement": "TGI", "setting": "[12]", "result": 4.16, "unit": "µM"}, {"measurement": "GI50", "setting": "[13]", "result": 1.58, "unit": "µM"}, {"measurement": "TGI", "setting": "[13]", "result": 3.42, "unit": "µM"}, {"measurement": "GI50", "setting": "[14]", "result": 1.5, "unit": "µM"}, {"measurement": "TGI", "setting": "[14]", "result": 3.5, "unit": "µM"}, {"measurement": "GI50", "setting": "[15]", "result": 1.83, "unit": "µM"}, {"measurement": "TGI", "setting": "[15]", "result": 3.99, "unit": "µM"}, {"measurement": "GI50", "setting": "[16]", "result": 1.49, "unit": "µM"}, {"measurement": "TGI", "setting": "[16]", "result": 8.65, "unit": "µM"}, {"measurement": "GI50", "setting": "[17]", "result": 1.5, "unit": "µM"}, {"measurement": "TGI", "setting": "[17]", "result": 3.59, "unit": "µM"}, {"measurement": "GI50", "setting": "[18]", "result": 2, "unit": "µM"}, {"measurement": "TGI", "setting": "[18]", "result": 6.27, "unit": "µM"}, {"measurement": "GI50", "setting": "[19]", "result": 1.42, "unit": "µM"}, {"measurement": "TGI", "setting": "[19]", "result": 3.04, "unit": "µM"}, {"measurement": "GI50", "setting": "[20]", "result": 2.72, "unit": "µM"}, {"measurement": "TGI", "setting": "[20]", "result": 8.09, "unit": "µM"}, {"measurement": "GI50", "setting": "[21]", "result": 1.83, "unit": "µM"}, {"measurement": "TGI", "setting": "[21]", "result": 3.43, "unit": "µM"}, {"measurement": "GI50", "setting": "[22]", "result": 1.69, "unit": "µM"}, {"measurement": "TGI", "setting": "[22]", "result": 3.22, "unit": "µM"}, {"measurement": "GI50", "setting": "[23]", "result": 1.42, "unit": "µM"}, {"measurement": "TGI", "setting": "[23]", "result": 3.36, "unit": "µM"}, {"measurement": "GI50", "setting": "[24]", "result": 1.97, "unit": "µM"}, {"measurement": "TGI", "setting": "[24]", "result": 4.1, "unit": "µM"}, {"measurement": "GI50", "setting": "[25]", "result": 1.72, "unit": "µM"}, {"measurement": "TGI", "setting": "[25]", "result": 3.25, "unit": "µM"}, {"measurement": "GI50", "setting": "[26]", "result": 1.87, "unit": "µM"}, {"measurement": "TGI", "setting": "[26]", "result": 4.42, "unit": "µM"}, {"measurement": "GI50", "setting": "[27]", "result": 1.85, "unit": "µM"}, {"measurement": "TGI", "setting": "[27]", "result": 3.88, "unit": "µM"}]}
